Experimental findings from paper PMC6882492, “Synthesis and biological evaluation of novel thienopyrimidine derivatives as diacylglycerol acyltransferase 1 (DGAT-1) inhibitors” (Journal of Enzyme Inhibition and Medicinal Chemistry, 2019) are described below.

For one data set, the target named is CYP2C19 (Homo sapiens, UniProt P33261). The experiment in a line: CYP inhibition assay CYP2C19. As to conditions: fluorescence detection method; read-out: CYPs enzyme inhibition, IC50, CYP2C19. It is filed as in vitro ADME.
Sequence of CYP2C19 (P33261 whole entry): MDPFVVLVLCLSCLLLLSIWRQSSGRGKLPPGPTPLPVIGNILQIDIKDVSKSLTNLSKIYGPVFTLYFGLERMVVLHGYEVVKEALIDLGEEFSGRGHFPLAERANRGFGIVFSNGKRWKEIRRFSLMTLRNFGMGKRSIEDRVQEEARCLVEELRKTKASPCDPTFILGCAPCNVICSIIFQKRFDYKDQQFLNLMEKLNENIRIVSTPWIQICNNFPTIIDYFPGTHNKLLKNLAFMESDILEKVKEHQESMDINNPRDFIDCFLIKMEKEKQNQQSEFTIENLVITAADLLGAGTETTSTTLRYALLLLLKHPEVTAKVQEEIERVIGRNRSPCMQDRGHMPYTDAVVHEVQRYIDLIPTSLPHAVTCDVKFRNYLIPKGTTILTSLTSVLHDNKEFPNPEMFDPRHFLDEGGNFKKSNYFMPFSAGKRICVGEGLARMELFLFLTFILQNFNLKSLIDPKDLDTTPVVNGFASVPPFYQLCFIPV
Data set [1] can be described thus: Pharmacokinetic profile in rat. It counts as in vivo.
A short description of data set [2]: Pharmacokinetic profile in dog. It counts as in vivo.

Bounds are passed on as bounds.

By IC50 is commonly meant the concentration that inhibits the measured activity by half. Usually half-life stands for how long it takes for the measured level to halve. In general, bioavailability refers to the share of a dose that reaches the circulation, judged against a reference dose that is usually intravenous. A high value points to much systemic uptake. As a reminder, the AUC is the area under the concentration-time curve, a measure of exposure.

`O=C([O-])C[C@H]1CC[C@@H](c2csc3c(-c4ccc(NC(=O)Nc5cccc(Cl)c5)cc4)ncnc32)CC1.[Na+]` [Compound 17a, Sodium cis-2–(4–(4-(4-(3–(3-chlorophenyl)ureido)phenyl)thieno[3,2-d]pyrimidin-7-yl)cyclohexyl)acetate]: on CYP2C19, the IC50 was greater than 20 µM. Further, the Cl in data set [1] (3 mg/kg iv, 10 mg/kg po) is 8.3 ± 3.3 mL/min/kg; in data set [2] (1 mg/kg iv, 3 mg/kg po), 6.7 ± 1.7 mL/min/kg. Besides, the half-life is 3 ± 0.4 h in data set [1] (in vivo, 10 mg/kg po) and 3.6 ± 0.7 h in data set [2] (in vivo, 3 mg/kg po). Moreover, the bioavailability in data set [1] (in vivo, 10 mg/kg po vs 3 mg/kg iv) amounted to 30%; in data set [2] (in vivo, 3 mg/kg po vs 1 mg/kg iv), 53%. Moreover, the AUC in data set [1] (in vivo, 10 mg/kg po, read-out: AUC 0 ∼ 24) stood at 18600 ng·h/mL; in data set [2] (in vivo, 3 mg/kg po, read-out: AUC 0 ∼ 24), 8240 ± 2300 ng·h/mL.
